Experimental data published in patent publication US20260083864A1, “CONTRAST AGENTS FOR USE IN DIAGNOSTIC COMPUTED TOMOGRAPHY IMAGING” (Bayer Aktiengesellschaft, priority 2022, published 2026).

Legend:
[1] = Water solubility in aqueous buffer; details: aqueous buffer 10 mM Tris-HCl, pH 7.4, 20° C.
Protocol: The solid compounds were added stepwise to the buffer solution. More substance is added once all the suspended material is dissolved until an equilibrium between undissolved and dissolved substance is reached. The suspension was mixed using a shaker (Heidolph Reax 2000) and treated 5 min in an ultrasound bath (Bandelin, Sonorex Super RK255H).

[2] = Complex stability (transmetallation) against Zn2+ in phosphate buffer; details: 72 hours, 2.5 mM Zn^2+, 26 mM phosphate buffer, 37° C., pH 7.4
Description: If test compounds are instable under these conditions, transmetallation during this test would lead to the formation of the Zn^2+ complex of the test item, while Gd^3+ is released and precipitated as highly insoluble GdPO4.

[3] = Relaxivity measurements at 1.41 T in water; assay type: physicochemical; details: 37° C., normalized to Gd
How it was run: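 T1 by inversion recovery and T2 by CPMG at 1.41 T (60 MHz), 37° C, relaxation delay ≥5×T1. Three Gd concentrations between 0.05 and 2 mM; relaxivities derived from measured relaxation rates in water.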

[4] = Relaxivity measurements at 1.41 T in human plasma; assay type: physicochemical; details: 37° C., normalized to Gd
How it was run: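 T1 determined by inversion recovery (8 inversion-time steps) and T2 by CPMG sequence, both with relaxation delay ≥5×T1. Each relaxivity used three Gd concentrations between 0.05 and 2 mM. Relaxivities were derived from relaxation rates measured in water and plasma.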

[5] = biological target: T1, OATP1B1 (Homo sapiens, UniProt Q9Y6L6); assay: Uptake into stable transfected OATP1B1 HEK 293 cells; assay type: cell-based; details: for Uptake into OATP1B1-HEK 293 cells: 40 min incubation, relative to RC1 (Gd-EOB-DTPA); for Inhibition Rifampicine: uptake into OATP1B1-HEK 293 cells
T1 sequence (Q9Y6L6 1-691): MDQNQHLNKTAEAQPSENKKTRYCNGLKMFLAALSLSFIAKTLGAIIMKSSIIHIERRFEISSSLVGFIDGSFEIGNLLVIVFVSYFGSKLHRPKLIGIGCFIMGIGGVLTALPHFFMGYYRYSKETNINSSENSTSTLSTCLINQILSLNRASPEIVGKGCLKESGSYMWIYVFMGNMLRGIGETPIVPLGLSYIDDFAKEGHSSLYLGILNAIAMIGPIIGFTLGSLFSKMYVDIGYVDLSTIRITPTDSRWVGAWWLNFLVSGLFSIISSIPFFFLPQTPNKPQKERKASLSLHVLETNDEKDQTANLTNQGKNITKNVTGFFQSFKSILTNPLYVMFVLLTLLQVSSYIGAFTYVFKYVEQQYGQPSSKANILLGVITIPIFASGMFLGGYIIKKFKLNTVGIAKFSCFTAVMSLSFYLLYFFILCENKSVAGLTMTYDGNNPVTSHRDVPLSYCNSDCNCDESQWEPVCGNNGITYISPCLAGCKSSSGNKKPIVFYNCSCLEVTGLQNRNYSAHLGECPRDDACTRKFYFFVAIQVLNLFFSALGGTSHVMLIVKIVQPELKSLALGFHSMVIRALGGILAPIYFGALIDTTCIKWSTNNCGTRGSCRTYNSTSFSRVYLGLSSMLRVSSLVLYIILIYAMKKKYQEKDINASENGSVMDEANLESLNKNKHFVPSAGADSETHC
How it was run: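 Uptake measured in triplicate after a 40 min, unshaken exposure of OATP1B1-expressing HEK293 cells to 100 µM (final) compound in transport buffer. Cold PBS wash stopped uptake; Gd-EOB-DTPA served as reference standard within each plate.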

[6] = biological target: T2, OATP1B3 (Homo sapiens, UniProt Q9NPD5); assay: Uptake into stable transfected OATP1B3 HEK 293 cells; assay type: cell-based; details: for Uptake into OATP1B3-HEK 293 cells: 40 min incubation, relative to RC1 (Gd-EOB-DTPA); for Inhibition Rifampicine: uptake into OATP1B3-HEK 293 cells
T2 sequence (Q9NPD5 1-702): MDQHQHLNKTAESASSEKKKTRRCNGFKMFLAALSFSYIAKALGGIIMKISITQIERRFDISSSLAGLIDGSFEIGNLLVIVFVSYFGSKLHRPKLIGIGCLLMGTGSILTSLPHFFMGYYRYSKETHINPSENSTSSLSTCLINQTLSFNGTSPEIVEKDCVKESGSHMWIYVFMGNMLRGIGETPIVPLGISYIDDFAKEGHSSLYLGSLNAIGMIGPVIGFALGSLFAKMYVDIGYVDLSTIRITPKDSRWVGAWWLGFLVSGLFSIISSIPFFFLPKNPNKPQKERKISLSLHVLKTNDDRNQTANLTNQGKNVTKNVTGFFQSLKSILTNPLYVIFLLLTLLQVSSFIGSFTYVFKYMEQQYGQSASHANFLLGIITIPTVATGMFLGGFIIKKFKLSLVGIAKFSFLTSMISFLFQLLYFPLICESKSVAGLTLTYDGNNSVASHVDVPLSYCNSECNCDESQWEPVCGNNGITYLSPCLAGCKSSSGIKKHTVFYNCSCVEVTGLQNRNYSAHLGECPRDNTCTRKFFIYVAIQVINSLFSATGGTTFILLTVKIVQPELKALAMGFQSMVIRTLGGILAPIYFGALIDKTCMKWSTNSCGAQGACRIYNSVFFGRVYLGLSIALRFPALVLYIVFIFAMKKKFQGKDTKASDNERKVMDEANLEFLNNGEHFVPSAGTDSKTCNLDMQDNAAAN
How it was run: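 HEK 293 cells stably transfected with human OATP1B3 were incubated for 40 min with test items at 100 μM final in transport buffer, in triplicate, then washed with cold PBS. Gadoxetate (Gd-EOB-DTPA) served as the reference standard on the same plate.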

[7] = Partition coefficient (log P butanol/buffer); assay type: physicochemical; details: 1-butanol / 50 mM Tris-HCl, pH 7.4, room temperature
[8] = system: freshly isolated rat hepatocytes; assay: Uptake into freshly isolated rat hepatocytes; details: for Uptake rat hepatocytes: 100 μmol Gd/L, 10 min, 37° C., relative to RC1 (Gd-EOB-DTPA); for Inhibition Rifampicine: rat hepatocyte uptake, test item and Rifampicine 1:1, each 100 μM

## CCCCOc1ccc(CCC[C@@H](C(=O)O)N2CCN(CC(=O)[O-])CCN(CC(=O)[O-])CCN(CC(=O)[O-])CC2)cc1.[Gd+3] [Example 31, gadolinium 2,2′,2″-{10-[(1S)-4-(4-butoxyphenyl)-1-carboxybutyl]-1,4,7,10-tetraazacyclododecane-1,4,7-triyl}triacetate]
[1]
  Solubility: >255 mM
[2]
  Transmetallation stability: 102%
[3]
  r1 water: 4.4 L/mmol/s
[4]
  r1 human plasma: 15.8 L/mmol/s
[5]
  Uptake into OATP1B1-HEK 293 cells: 1919 % of RC1
  Inhibition Rifampicine: 98 % inhibition
[6]
  Uptake into OATP1B3-HEK 293 cells: 194 % of RC1
  Inhibition Rifampicine: 99 % inhibition
[7]
  Log P (partition coefficient butanol/buffer): 0.20
[8]
  Uptake rat hepatocytes: 87 % of RC1
  Inhibition Rifampicine: 94 % inhibition

## CCOCCOc1ccc(CC(C(=O)O)N2CCN(CC(=O)[O-])CCN(C(CC)C(=O)[O-])CCN(CC(=O)[O-])CC2)cc1.[Gd+3] (single isomer, unassigned) [Example 8, gadolinium 2-[7-{1-carboxy-2-[4-(2-ethoxyethoxy)phenyl]ethyl}-4,10-bis(carboxylatomethyl)-1,4,7,10-tetraazacyclododecan-1-yl]butanoate]
[1]
  Solubility: 117 mM
[2]
  Transmetallation stability: 102%
[3]
  r1 water: 4.5 L/mmol/s
[4]
  r1 human plasma: 7.2 L/mmol/s
[5]
  Uptake into OATP1B1-HEK 293 cells: 271 % of RC1
  Inhibition Rifampicine: 90 % inhibition
[6]
  Uptake into OATP1B3-HEK 293 cells: 90 % of RC1
  Inhibition Rifampicine: 99 % inhibition
[7]
  Log P (partition coefficient butanol/buffer): −1.04
[8]
  Uptake rat hepatocytes: 83 % of RC1
  Inhibition Rifampicine: 98 % inhibition

## CCCCOc1cccc(CCC[C@@H](C(=O)O)N2CCN([C@@H](CO)C(=O)[O-])CCN([C@@H](CO)C(=O)[O-])CCN([C@@H](CO)C(=O)[O-])CC2)c1.[Gd+3] [Example 34, gadolinium (2S,2′S,2″S)-2,2′,2″-{10-[(1S)-4-(3-butoxyphenyl)-1-carboxybutyl]-1,4,7,10-tetraazacyclododecane-1,4,7-triyl}tris(3-hydroxypropanoate)]
[1]
  Solubility: >236 mM
[2]
  Transmetallation stability: 101%
[3]
  r1 water: 4.9 L/mmol/s
[4]
  r1 human plasma: 18.0 L/mmol/s
[5]
  Uptake into OATP1B1-HEK 293 cells: 947 % of RC1
  Inhibition Rifampicine: 96 % inhibition
[6]
  Uptake into OATP1B3-HEK 293 cells: 140 % of RC1
  Inhibition Rifampicine: 98 % inhibition
[7]
  Log P (partition coefficient butanol/buffer): 0.12
[8]
  Uptake rat hepatocytes: 98 % of RC1
  Inhibition Rifampicine: 90 % inhibition

## CCOc1ccc(CCCC(C(=O)O)N2CCN(CC(=O)[O-])CCN(CC(=O)[O-])CCN(CC(=O)[O-])CC2)cc1.[Gd+3] (centres unmarked) [Example 28, gadolinium 2,2′,2″-{10-[1-carboxy-4-(4-ethoxyphenyl)butyl]-1,4,7,10-tetraazacyclododecane-1,4,7-triyl}triacetate]
[1]
  Solubility: >194 mM
[2]
  Transmetallation stability: 101%
[3]
  r1 water: 4.4 L/mmol/s
[4]
  r1 human plasma: 10.6 L/mmol/s
[5]
  Uptake into OATP1B1-HEK 293 cells: 294 % of RC1
  Inhibition Rifampicine: 94 % inhibition
[6]
  Uptake into OATP1B3-HEK 293 cells: 36 % of RC1
  Inhibition Rifampicine: 97 % inhibition
[7]
  Log P (partition coefficient butanol/buffer): −0.71
[8]
  Uptake rat hepatocytes: 72 % of RC1
  Inhibition Rifampicine: 98 % inhibition

## CCOCCOc1ccc(CC(C(=O)O)N2CCN(CC(=O)[O-])CCN(C(COC)C(=O)[O-])CCN(CC(=O)[O-])CC2)cc1.[Gd+3] (centres unmarked) [Example 38, gadolinium 2-[7-{1-carboxy-2-[4-(2-ethoxyethoxy)phenyl]ethyl}-4,10-bis(carboxylatomethyl)-1,4,7,10-tetraazacyclododecan-1-yl]-3-methoxypropanoate]
[1]
  Solubility: >103 mM
[2]
  Transmetallation stability: 97%
[3]
  r1 water: 5.6 L/mmol/s
[4]
  r1 human plasma: 7.5 L/mmol/s
[5]
  Uptake into OATP1B1-HEK 293 cells: 137 % of RC1
  Inhibition Rifampicine: 65 % inhibition
[6]
  Uptake into OATP1B3-HEK 293 cells: 24 % of RC1
  Inhibition Rifampicine: 94 % inhibition
[7]
  Log P (partition coefficient butanol/buffer): −1.41
[8]
  Uptake rat hepatocytes: 62 % of RC1
  Inhibition Rifampicine: 94 % inhibition

## CCOCCOCCOc1ccc(CCC[C@@H](C(=O)O)N2CCN(CC(=O)[O-])CCN(CC(=O)[O-])CCN(CC(=O)[O-])CC2)cc1.[Gd+3] [Example 26, gadolinium 2,2′,2″-{10-[(1S)-1-carboxy-4-{4-[2-(2-ethoxyethoxy)ethoxy]phenyl}butyl]-1,4,7,10-tetraazacyclododecane-1,4,7-triyl}triacetate]
[1]
  Solubility: >62 mM
[2]
  Transmetallation stability: 99%
[3]
  r1 water: 4.5 L/mmol/s
[4]
  r1 human plasma: 7.5 L/mmol/s
[5]
  Uptake into OATP1B1-HEK 293 cells: 386 % of RC1
  Inhibition Rifampicine: 73 % inhibition
[6]
  Uptake into OATP1B3-HEK 293 cells: 64 % of RC1
  Inhibition Rifampicine: 93 % inhibition
[7]
  Log P (partition coefficient butanol/buffer): −1.01
[8]
  Uptake rat hepatocytes: 77 % of RC1
  Inhibition Rifampicine: 97 % inhibition

## CCOCCOc1ccc(CC(C(=O)O)N2CCN(CC(=O)[O-])CCN(C(CC)C(=O)[O-])CCN(CC(=O)[O-])CC2)cc1.[Gd+3] (single isomer, unassigned) [Example 7, gadolinium 2-[7-{1-carboxy-2-[4-(2-ethoxyethoxy)phenyl]ethyl}-4,10-bis(carboxylatomethyl)-1,4,7,10-tetraazacyclododecan-1-yl]butanoate]
[1]
  Solubility: >243 mM
[2]
  Transmetallation stability: 101%
[3]
  r1 water: 4.5 L/mmol/s
[4]
  r1 human plasma: 7.4 L/mmol/s
[5]
  Uptake into OATP1B1-HEK 293 cells: 217 % of RC1
  Inhibition Rifampicine: 91 % inhibition
[6]
  Uptake into OATP1B3-HEK 293 cells: 76 % of RC1
  Inhibition Rifampicine: 99 % inhibition
[7]
  Log P (partition coefficient butanol/buffer): −1.09
[8]
  Uptake rat hepatocytes: 89 % of RC1
  Inhibition Rifampicine: 99 % inhibition
